Measured values as given in PubChem BioAssay AID743031 (The Scripps Research Institute Molecular Screening Center, 2013).

Legend:
Mouse Plasma = assay: mouse brain penetration after oral dosing – LC-MS/MS, powder samples, in vivo study for V1a-R antagonist project, late-stage follow-up (AID 743031); conditions: C57Bl6 mouse, 10 mg/kg PO, LC-MS/MS at 60 min, 60 min after 10 mg/kg PO
Mouse Brain = assay: as above; conditions: C57Bl6 mouse, 10 mg/kg PO, LC-MS/MS at 60 min, 60 min after 10 mg/kg PO
[1] = brain to plasma ratio, stronger effect = higher value

O=C(C1CCN(c2ccc(Cl)cn2)CC1)N(CC1CC1)c1ccc(Cl)cc1
compound concentration (Mouse Plasma): 2.56 µM | brain/plasma ratio (Mouse Plasma; [1]): 1.28 | compound concentration (Mouse Brain): 3.27 µM | brain/plasma ratio (Mouse Brain; [1]): 1.28
